Test system: rats with scopolamine-induced cognitive impairment
Assay: Novel object recognition test using rats with scopolamine-induced cognitive impairment
Format: in vivo, rat (male Long Evans)
Conditions: for effect on the percentage of exploration of the novel object (in words): vs disease control group, p<0.05; for percentage of exploration of the novel object in T2: scopolamine 0.7 mg/kg s.c., mean±standard error
Excerpt: [Test Example 1] Novel Object Recognition Test Using Rats with Scopolamine-Induced Cognitive Impairment
Acetylcholine nervous system disorder has been reported in Alzheimer's disease and Lewy body dementia (Whitehouse et al., Science, 1982, vol. 215, p. 1237, Shimada et al., Neurology, vol. 73, p. 273, 2009, Tiraboschi et al., Neurology 54 (2000) 407-411, Peny et. al., NeuroReport, vol. 5, pp. 747-749 (1994)), and scopolamine-administered animals are utilizable as an animal model for Alzheimer's disease and Lewy body dementia.
Scopolamine is a muscarine receptor inhibitor which blocks acetylcholine nervous system transmission.
6-week-old male Long Evans rats (Institute for Animal Reproduction) were subjected to the test. A habituation process to the experimental procedure was carried out once per day for 2 days prior to the test. In the habituation process, a vehicle was administered to the rats, and then the rats were placed in an empty test apparatus (40 cm×30 cm×45 cm height) and allowed to explore for 3 minutes, and after then placed in a waiting chamber (13 cm×30 cm×45 cm height) for about 1 minute, they were returned to the empty test apparatus again and left for 5 minutes.
An acquisition trial (T1) was carried out on the day of the test. Compound (I) was orally administered 2 hours before T1. Donepezil hydrochloride was orally administered 1 hour before T1. Scopolamine (Wako Pure Chemical Industries, Ltd.) was subcutaneously administered 30 minutes before T1 at a dose of 0.7 mg/kg. In T1, the rats were habituated to the empty test apparatus for 3 minutes and then placed in the waiting chamber. After setting two identical objects in the test apparatus, the rats were returned into the test apparatus again and allowed to freely explore the two identical objects for 5 minutes. The rats were then returned into their rearing cages. After 2 hours, a retention trial (T2) was carried out. The rats were placed in the empty test apparatus for 3 minutes for habituation, and were then transferred into the waiting chamber. After setting an object used in T1 (“familiar” object) and an object not used in T1 (“novel” object) in the test apparatus, the rats were again returned into the test apparatus and allowed to freely explore these objects for 3 minutes. The objects were wiped with a wet wipe impregnated with ethanol after each experiment so as to leave no trace of odor. The behaviors of the rats during T1 and T2 were recorded by a digital video camera, and the total exploration time for each object was manually measured using a stopwatch. Exploratory behavior was defined as the behavior in which the rat brings its nose within 2 cm of the object and directs its nose toward the object.
In the novel object recognition test, the percentage of exploration of the novel object in T2 is considered to be an index for amnesia, reflecting discrimination between the familiar object and the novel object. The percentage of exploration of the novel object was calculated by the following formula. The percentage of exploration of the novel object (%)=N/(N+F)×100 F: time spent in exploring the familiar object N: time spent in exploring the novel object
Rats whose total time spent in exploring the objects during T1 or T2 was 10 seconds or less or rats whose percentage of the time spent in exploring either of the objects during T1 was not less than 70% or not more than 30% of the total exploration time were excluded from the data analysis.
The results were expressed as mean±standard error. The difference between the normal control group untreated with scopolamine and the disease control group treated with scopolamine was analyzed by an unpaired t-test (significant difference: *). The difference between the disease control group and the single drug-treated group was analyzed by Dunnett-type multiple comparison test (significant difference: #).

SMILES | effect on the percentage of exploration of the novel object (in words) (1 mg/kg) | effect on the percentage of exploration of the novel object (in words) (3.3 mg/kg) | percentage of exploration of the novel object in T2 (Table 5, Compound (I) 1 mg/kg alone, oral) [%] | effect on the percentage of exploration of the novel object (in words) (0.03 mg/kg) | effect on the percentage of exploration of the novel object (in words) (0.3 mg/kg) | percentage of exploration of the novel object in T2 (Table 3, Donepezil 0.03 mg/kg oral 1 h before T1) [%] | percentage of exploration of the novel object in T2 (Table 4, Donepezil 0.1 mg/kg oral 1 h before T1) [%] | percentage of exploration of the novel object in T2 (Table 4, Donepezil 0.3 mg/kg oral 1 h before T1, # significant vs disease control) | percentage of exploration of the novel object in T2 (Table 5, Donepezil 0.03 mg/kg alone, oral) [%]
COc1ncc(C)c(-c2ccc3c(c2)[nH]c(=O)c2cnn([C@H]4CCOC4)c23)c1C [Compound (I), (S)-7-(2-methoxy-3,5-dimethylpyridin-4-yl)-1-(tetrahydrofuran-3-yl)-1H-pyrazolo[4,3-c]quinoline-4(5H)-one] | did not exhibit a significant effect | significant ameliorative effect | 64.9 ± 2.2 | – | – | – | – | – | –
COc1cc2c(cc1OC)C(=O)C(CC1CCN(Cc3ccccc3)CC1)C2 (stereo not drawn) [Donepezil, donepezil] | – | – | – | did not exhibit a significant effect | significant ameliorative effect | 62.7 ± 3.6 | 66.2 ± 4.0 | 70.4 ± 4.8# % | 57.8 ± 4.0

— patent US11833146B2, “Dementia therapeutic agent combining pyrazoloquinoline derivative and donepezil” (Eisai R&D Management Co., Ltd., priority 2017, dated 2023)
